Data published in ChEMBL document CHEMBL1131091, “Discovery of potent, achiral matrix metalloproteinase inhibitors” (J Med Chem, 1998).

How the values were obtained:
Matrilysin = biological target: T1, Matrilysin (Homo sapiens, UniProt P09237); test: Inhibition of Matrix metalloprotease-7
T1 sequence (P09237 whole entry): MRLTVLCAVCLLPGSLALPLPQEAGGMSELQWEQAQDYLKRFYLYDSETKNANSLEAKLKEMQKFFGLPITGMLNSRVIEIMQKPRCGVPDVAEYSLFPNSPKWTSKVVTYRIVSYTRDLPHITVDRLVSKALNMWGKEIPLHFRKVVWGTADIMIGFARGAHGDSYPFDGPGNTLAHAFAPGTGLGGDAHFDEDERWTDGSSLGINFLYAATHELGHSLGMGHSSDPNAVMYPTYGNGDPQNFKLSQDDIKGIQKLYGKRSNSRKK

[1] = biological target: Matrix metalloproteinase-9 (Homo sapiens, UniProt P14780); test: Inhibition of Matrix metalloprotease-9
Interstitial collagenase = biological target: T2, Interstitial collagenase (Homo sapiens, UniProt P03956); test: Inhibition of Matrix metalloprotease-1
T2 sequence (P03956 whole entry): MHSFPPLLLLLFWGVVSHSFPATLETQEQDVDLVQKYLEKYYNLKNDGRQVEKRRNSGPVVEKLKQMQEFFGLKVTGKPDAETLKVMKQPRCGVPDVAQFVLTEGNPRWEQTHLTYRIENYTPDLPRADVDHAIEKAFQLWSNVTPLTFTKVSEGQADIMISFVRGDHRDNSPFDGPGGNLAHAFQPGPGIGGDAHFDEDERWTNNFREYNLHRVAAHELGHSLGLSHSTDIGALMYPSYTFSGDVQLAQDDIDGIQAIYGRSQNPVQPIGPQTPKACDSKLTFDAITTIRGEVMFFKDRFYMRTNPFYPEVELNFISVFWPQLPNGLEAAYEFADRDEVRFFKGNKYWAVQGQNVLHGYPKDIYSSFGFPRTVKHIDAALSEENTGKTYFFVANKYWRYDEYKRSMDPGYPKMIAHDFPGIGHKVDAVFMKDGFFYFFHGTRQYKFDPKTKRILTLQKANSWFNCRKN

Stromelysin-1 = Stromelysin-1 (Homo sapiens, UniProt P08254); test: Inhibition of Matrix metalloprotease-3
Sequence of Stromelysin-1 (P08254 whole entry): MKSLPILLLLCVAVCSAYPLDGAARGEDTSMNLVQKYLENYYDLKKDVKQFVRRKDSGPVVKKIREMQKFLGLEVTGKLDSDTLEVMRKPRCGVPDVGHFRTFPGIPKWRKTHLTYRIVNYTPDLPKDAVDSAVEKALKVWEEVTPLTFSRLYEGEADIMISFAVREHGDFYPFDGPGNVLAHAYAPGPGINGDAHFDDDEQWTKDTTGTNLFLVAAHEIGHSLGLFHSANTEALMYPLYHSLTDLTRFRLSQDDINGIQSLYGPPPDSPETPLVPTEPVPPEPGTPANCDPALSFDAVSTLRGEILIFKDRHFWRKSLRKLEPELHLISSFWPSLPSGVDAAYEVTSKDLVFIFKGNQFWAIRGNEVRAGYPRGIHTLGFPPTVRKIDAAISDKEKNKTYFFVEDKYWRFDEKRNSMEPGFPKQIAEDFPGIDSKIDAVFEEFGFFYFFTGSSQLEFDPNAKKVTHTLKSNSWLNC

Sequence of Matrix metalloproteinase-9 (P14780 whole entry): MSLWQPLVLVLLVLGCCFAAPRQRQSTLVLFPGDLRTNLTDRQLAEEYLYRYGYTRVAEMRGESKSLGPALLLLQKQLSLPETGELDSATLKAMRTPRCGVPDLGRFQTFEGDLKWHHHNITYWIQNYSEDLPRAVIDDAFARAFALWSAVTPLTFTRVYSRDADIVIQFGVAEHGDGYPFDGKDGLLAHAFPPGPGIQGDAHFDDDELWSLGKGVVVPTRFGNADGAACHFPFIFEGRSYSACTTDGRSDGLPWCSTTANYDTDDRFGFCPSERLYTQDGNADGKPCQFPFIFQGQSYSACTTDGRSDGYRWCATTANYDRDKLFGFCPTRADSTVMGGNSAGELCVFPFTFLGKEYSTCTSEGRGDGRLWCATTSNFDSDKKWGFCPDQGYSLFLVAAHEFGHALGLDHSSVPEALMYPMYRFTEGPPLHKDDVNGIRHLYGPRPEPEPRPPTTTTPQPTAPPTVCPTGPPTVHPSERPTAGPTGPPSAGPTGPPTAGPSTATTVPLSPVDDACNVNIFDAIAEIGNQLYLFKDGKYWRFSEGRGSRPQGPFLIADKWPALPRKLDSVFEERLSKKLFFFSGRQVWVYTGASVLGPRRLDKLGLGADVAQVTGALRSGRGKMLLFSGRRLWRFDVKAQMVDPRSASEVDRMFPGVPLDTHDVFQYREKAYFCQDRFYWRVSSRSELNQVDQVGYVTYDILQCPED

Structure (SMILES) | IC50 (Matrilysin) | IC50 [1] | IC50 (Interstitial collagenase) | IC50 (Stromelysin-1)
COc1ccc(S(=O)(=O)N2CC(C)(C)CN(S(=O)(=O)c3ccc(OC)cc3)C2C(=O)NO)cc1 | 30 nM | 2.7 nM | 24 nM | –
COc1ccc(S(=O)(=O)N2CC(O)CN(S(=O)(=O)c3ccc(OC)cc3)C2C(=O)NO)cc1 (stereo not drawn) | 366 nM | 4.7 nM | 51 nM | 41 nM
COc1ccc(S(=O)(=O)N2CC3(CN(S(=O)(=O)c4ccc(OC)cc4)C2C(=O)NO)SCCCS3)cc1 | 123 nM | 15.6 nM | 79 nM | 19.5 nM
COc1ccc(S(=O)(=O)N2CCCCN(S(=O)(=O)c3ccc(OC)cc3)C2C(=O)NO)cc1 | – | – | 827 nM | 1290 nM
COc1ccc(S(=O)(=O)N2CCN(S(=O)(=O)c3ccc(OC)cc3)C2C(=O)NO)cc1 | – | – | 4650 nM | 1060 nM
COc1ccc(S(=O)(=O)N2CCCN(S(=O)(=O)c3ccc(OC)cc3)C2C(=O)NO)cc1 | 460 nM | 3.9 nM | 79 nM | 33 nM
CCCCOc1ccc(S(=O)(=O)N2CC(C)(C)CN(S(=O)(=O)c3ccc(OCCCC)cc3)C2C(=O)NO)cc1 | 716 nM | 101 nM | – | 22 nM
COc1ccc(S(=O)(=O)N(Cc2cccnc2)[C@@H](C(=O)NO)C(C)C)cc1 [CGS-27023A] | 106 nM | – | – | –
